Among the data in ChEMBL document CHEMBL1148072, “Ellagitannins and complex tannins from Quercus petraea bark” (J Nat Prod, 1994) are IC50 and Activity values, retold here.

Structures are written as SMILES.

The test system of the first experiment is Caenorhabditis elegans. Nature of the experiment: Anthelmintic activity against Caenorhabditis elegans. The class given is functional, organism-based.
The molecule `COC(=O)Nc1nc2cc(C(=O)c3ccccc3)ccc2[nH]1` [MEBENDAZOLE] returned an IC50 of 10 ppm.

In a further experiment the test system is Blood. Nature of the experiment: Astringency in human blood by heme-analysis relative to tannin. The class given is functional.
Turning to `O=C1OC[C@H]2OC(=O)c3cc(O)c(O)c(O)c3-c3c(O)c(O)c(O)c4c3C(=O)O[C@H]([C@@H]3OC(=O)c5c-4c(O)c(O)c(O)c5[C@@H]3c3c(O)cc(O)c4c3O[C@H](c3ccc(O)c(O)c3)[C@@H](O)C4)[C@H]2OC(=O)c2cc(O)c(O)c(O)c2-c2c1cc(O)c(O)c2O` [ACUTISSIMIN A], the Activity was found to be 0.28.

`O=C1OC[C@H]2OC(=O)c3cc(O)c(O)c(O)c3-c3c(O)c(O)c(O)c4c3C(=O)O[C@H]([C@@H]3OC(=O)c5c-4c(O)c(O)c(O)c5[C@@H]3c3c(O)cc(O)c4c3O[C@H](c3cc(O)c(O)c(O)c3)[C@@H](O)C4)[C@H]2OC(=O)c2cc(O)c(O)c(O)c2-c2c1cc(O)c(O)c2O` [EUGENIGRANDIN A] had an Activity of 0.46. On to `O=C1OC[C@H]2OC(=O)c3cc(O)c(O)c(O)c3-c3c(O)c(O)c(O)c4c3C(=O)O[C@H]([C@@H]3OC(=O)c5c-4c(O)c(O)c(O)c5[C@@H]3c3c(O)cc4c(c3O)C[C@H](O)[C@@H](c3cc(O)c(O)c(O)c3)O4)[C@H]2OC(=O)c2cc(O)c(O)c(O)c2-c2c1cc(O)c(O)c2O` [GUAJAVIN B], for which the Activity turned out to be 0.44. As for `O=C1OC[C@H]2OC(O)[C@@H]3OC(=O)c4cc(O)c(O)c(O)c4-c4c(cc(O)c(O)c4O)C(=O)O[C@H]3[C@@H]2OC(=O)c2cc(O)c(O)c(O)c2-c2c1cc(O)c(O)c2O` (stereo partly specified) [PEDUNCULAGIN], the Activity worked out at 0.2. The molecule `O=C1OCC2OC(=O)c3cc(O)c(O)c(O)c3-c3c(O)c(O)c(O)c4c3C(=O)OC(C2OC(=O)c2cc(O)c(O)c(O)c2-c2c1cc(O)c(O)c2O)C1OC(=O)c2c-4c(O)c(O)c(O)c2C1O` (stereo unspecified) [VESCALAGIN] gave an Activity of 0.24.
